Laboratory results published in patent US20250185651A1, “COMPOSITION FOR PESTICIDE PHYTOTOXICITY REDUCTION COMPRISING AMINO ACID” (CJ CheilJedang Corporation, priority 2021, published 2025).

Test system: soybeans (Glycine max)
Assay: Example 1: soybean seed treatment with fluensulfone plus a single amino acid (pesticide phytotoxicity reduction)
Format: in vivo
Settings: conclusion of Example 1; soybean seeds, 0.1% (w/v) amino acid
Description: To 10 g of seeds of soybeans (scientific name: Glycine max), fluensulfone (Nimitz, ADAMA, 40% (w/v) Fluensulfone-containing product) or fluensulfone with 1 ml of 0.1% (w/v) amino acid solution were treated as a pesticide. […] The treatment groups were as Table 1 below.
After mixing the solutions of each group well, they were sufficiently mixed for about 1 minute so that the solutions were evenly applied to soybean seeds. After than, they were taken out in a sample dish and air-drying was performed until the solutions were dried.
Soybean seeds were sown, and the germination rate was measured by counting the number of germinated seeds among all the seeds in 7 days after sowing, and this was shown in FIG. 1.
In 20 days after sowing, the length of the shoots (from the ground to the growth point) was measured with a ruler and this was shown in FIG. 2, and the photographs of the shoots and roots were shown in FIG. 3 and FIG. 4.

Compound	phytotoxicity by fluensulfone
N[C@@H](Cc1c[nH]cn1)C(=O)O [histidine]	reduced
CC(C)C[C@H](N)C(=O)O [leucine]	reduced
N[C@@H](CCC(=O)O)C(=O)O.[Na] [sodium glutamic acid]	reduced
